What was measured:
[1] = system: NLK 3′UTR; assay: Luciferase fused to NLK 3′UTR in differentiating HSPCs; assay type: cell-based, human
Experimental: We generated a series of truncated NLK 3′UTRs fused to the luciferase gene and transduced them into control and RPS19-insufficient differentiating HSPCs. Cells were treated with increasing concentrations of ginsenoside Rb1 or metformin and luciferase activity assessed.

[2] = system: CD11b+ myeloid cells; assay: CD11b+ myeloid expansion of differentiating human cord blood CD34+ progenitors; assay type: cell-based
Experimental: FIG. 7. SD208 increases erythroid expansion in human model of DBA through inhibition of NLK and not TGFβ. (a) Differentiating cord blood CD34+ progenitors were transduced with shRNA against luciferase or RPS19 and treated with inhibitors at working concentrations for TGFβ inhibition every three days. Cells were counted and CD235+ erythroid cells were assessed by flow cytometry after 15 days. (b) Prior to flow cytometry, 5000 cells per group were taken from differentiating cultures for NLK kinase assay. (c) CD34+ progenitors were transduced with shRNA against luciferase or RPS19 and non-targeting or siRNA against NLK. After sorting, samples were split into two groups and either treated with vehicle or SD208 every three days. After 15 days cells were counted and subject to flow cytometry to compare the expansion of maturing CD235+ erythroid (left panel) and CD11b+ myeloid cells (right panel). […] Cells were counted and CD235+ erythroid (D—upper) and CD11b+ myeloid cell (D—lower) percentages were determined by flow cytometry. The number of erythroid or myeloid cells is expressed as a percentage of the number of that lineage with no cytokine or drug treatment.
FIG. 9. […] Cells were counted and the percentage expressing CD235+ erythroid (left) and CD11b+ myeloid (right) was determined by flow cytometry. […] Values are expressed as a fold induction relative to untreated. (Panel C) Transduced and sorted CD34+ progenitors were cultured in methylcellulose in the presence or absence of metformin for 16 days and BFU-E erythroid (left) and CFU-GM myeloid (right) colonies scored. […] To directly compare the effect of metformin in each group, metformin-treated cultures were normalized to untreated cultures and are expressed as a fold induction of the untreated control. […]
Cells were incubated with human Fc receptor binding inhibitor (#14-9161-73; eBioscience) followed by primary antibodies CD235-APC (#306607; BioLegend) and CD11b-PE/Cy5 (#101209; BioLegend). Data were collected on a DxP10 flow cytometer (Cytek) and analyzed by using FlowJo Software, v.9.7.2.

[3] = system: miR-208; assay: miRNA expression in vehicle-, metformin- and ginsenoside Rb1-treated HSPCs; assay type: cell-based, human
Excerpt: The abundance of let-7, miR-30 miR-144 and miR-132 were expressed 40.1-, 2.2-, 5.0- and 18.3-fold higher than miR-208, whereas miR-208 was expressed 1.6- and 2.1-fold higher than miR-199 and miR-499. MiR-26a (induced by metformin) expression was 1.4-fold higher than miR-208.

[4] = system: zebrafish (Danio rerio) embryos; assay: Zebrafish rps19 morpholino model, o-dianisidine hemoglobin staining; assay type: in vivo
Excerpt: FIG. 11. […] Statistics: two-tailed Student's t test, significant *P<0.05

[5] = system: SATB1 3′UTR; assay: Luciferase alone or fused to SATB1 3′UTR in K562 cells; assay type: cell-based, human; conditions: K562, 0.5-50 mM, 72 hrs
Experimental: FIG. 12. NLK 3′UTR facilitates metformin-mediated NLK suppression. (Panel A) K562 cells stabling expressing luciferase alone (top portion), luciferase expressed behind a minimal promoter and the NLK proximal promoter (2nd portion), luciferase immediately upstream of the human NLK 3′UTR (3rd portion) or luciferase with the SATB1 3′UTR (bottom portion) were grown in the presence of 0, 0.5, 5.0 or 50.0 mM of metformin for 72 hrs. Cell were pelleted and either processed for luciferase assay (left portion) or western blot analysis of endogenous NLK (upper right portion) or GAPDH (lower right portion). (Panel B) Luciferase immediately upstream of the human (upper), murine (middle) and zebrafish (lower) NLK 3′UTR were transiently transfected into human K562 (left) and cultured with indicated concentrations of metformin for 72 hrs. Lysates were assessed for luciferase activity and endogenous NLK and GAPDH protein expression by Western blotting. […] Statistics: two-tailed Student's t test, significant *P<0.05
In parallel with measuring luciferase activity, the response of endogenous NLK protein expression was monitored by Western blot analysis with a high degree of correlation.

[6] = system: NLK; assay: Endogenous NLK protein in K562 cells (Western blot); assay type: cell-based, human; conditions: K562, miRNA mimetics or metformin, 72 hrs
Experimental: FIG. 14. Metformin-mediated upregulation of miR-26a in human progenitors suppresses NLK expression. (Panel A) Human CD34+ (upper) and murine Lin-Kit+ (lower) progenitors were differentiated for 8 days in the presence or absence of metformin and the levels of indicated miRNAs were assessed by qRT-PCR. (Panel B) K562 cells stably expressing the luciferase gene coupled to the NLK 3′UTR were mock transfected, transfected with indicated miRNA mimetics, or treated with metformin, and cultured in the presence or absence of metformin for 72 hrs. After lysis, luciferase activity was determined and endogenous NLK and GAPDH protein expression was analyzed by Western blot. (Panel C) K562 cells were mock transfected, or transfected with either miR-34 or miR-26 sponges, prior to being left untreated or treated with metformin for 72 hrs. Lysed cells were subjected to luciferase assay and western blotting to examine NLK and GAPDH protein expression. […] Statistics: two-tailed Student's t test, significant *P<0.05
NLK kinase activity was performed as published (5). For Western blotting, antibodies against NLK (#AB97642; Abcam; 1:1000 dilution) and GAPDH (#MAB374; Millipore; 1:10000) were used according to manufacturer's instructions.

Structure (SMILES) | reduction of luciferase activity (NLK 3′UTR) ([1]; 50 mM ginsenoside Rb1) [%] | impact on CD11b+ myeloid expansion ([2]; control or RPS19-insufficiency) | induction of miR-208 ([3]; ginsenoside Rb1-treated HSPCs) [fold] | reduction of luciferase activity (NLK 3′UTR) ([1]; metformin) [%] | influence on CD11b+ expansion ([2]; 50 mM metformin) | heart conditions ([4]; 20 mM metformin) | O'dianisidine (hemoglobin) staining ([4]; 20 mM metformin from 4 to 5 hpf, day 3) | metformin sensitivity of luciferase alone or fused with SATB1 3′UTR [5] | induction of miR-499, miR-208, miR-132 ([3]; metformin-treated HSPCs) | reduction of endogenous NLK protein expression [6] [%]
CC(C)=CCC[C@](C)(O[C@@H]1O[C@H](CO[C@@H]2O[C@H](CO)[C@@H](O)[C@H](O)[C@H]2O)[C@@H](O)[C@H](O)[C@H]1O)[C@H]1CC[C@]2(C)[C@@H]1[C@H](O)C[C@@H]1[C@@]3(C)CC[C@H](O[C@@H]4O[C@H](CO)[C@@H](O)[C@H](O)[C@H]4O[C@@H]4O[C@H](CO)[C@@H](O)[C@H](O)[C@H]4O)C(C)(C)[C@@H]3CC[C@]12C [ginsenoside Rb1] | 35.9 | did not impact | 1.9 |  |  |  |  |  |  | 
CN(C)C(=N)N=C(N)N [metformin] |  |  |  | 67.5 | negligible influence | persisted | dramatically restored | did not result in metformin sensitivity | None of these miRNAs were induced | 68.6

Reference: patent US12403132B2, “Methods of treating bone marrow failure syndromes and compositions for use in the same” (The Board of Trustees of the Leland Stanford Junior …, priority 2020, dated 2025)
